“And” between values parts separate entries of the source, which are not always exact repeats. Equal entries are not always repeated. “Also recorded” adds a separate entry of the source. Where two headings read alike, the source gives them in different places.
Columns and labels:
Type in all cases: cell-based
[1] = test system: DU-145 prostate cancer cells; experiment: 3D clonogenic assay, parental DU-145; details: for IC50: Homo sapiens
Experimental: (§1) For the single agent efficacy experiment, a master stock solution of cabazitaxel was prepared by dissolving compound powder in DMSO at a concentration of 10 mM. From this a working stock solution of 0.1 mM (330-fold the highest test concentration) was prepared. Small aliquots of this solution were stored at −20° C. On each day of an experiment, a frozen aliquot of the working stock solution was thawed and stored at room temperature prior to and during treatment. First, serial half-log dilutions of the working stock solution were prepared in DMSO. These dilutions were then diluted 1:22 into cell culture medium in an intermediate dilution plate. Finally, 10 μl taken from the intermediate dilution plate were transferred to 140 μl/well of the final assay plate. Thus, the DMSO working stock was diluted 1:330, and the DMSO concentration in the assay was 0.3% v/v.
(§2) For combination experiments, working stock solutions of docetaxel, ritonavir, elacridar, and cabazitaxel were prepared in DMSO at concentrations of 660-fold the highest test concentration used. Small aliquots of this stock solution were stored at −20° C. On each day of an experiment, a frozen aliquot of the working stock solutions was thawed and stored at room temperature prior to and during treatment. First, 1:2 dilutions of 660-fold concentrated working stocks were done in DMSO (in case of monotherapy controls), or equal amounts of the compound working stocks were mixed (in case of drug combinations). Then, different dilutions of these 330-fold concentrated solutions were done in DMSO to give a 8*2 matrix combination layout. The DMSO dilutions were further diluted 1:22 into cell culture medium (IMDM, supplemented with 20% (v/v) fetal calf serum, 50 μg/ml gentamicin) in an intermediate dilution plate. Finally, 10 μl taken from the intermediate dilution plate were transferred to 140 μl of cells and medium per well of the final assay plate. Thus, the DMSO dilutions used for the mono- and the combination-treatment were diluted 1:330, and the DMSO concentration in the assay was 0.3% v/v.
(§3) DU-145 DOC10 was generated from DU-145 and 22Rv1 DOC8 was generated from 22Rv1. 22Rv1 was obtained from American Type Culture Collection (ATCC, Rockville, MD, USA), whereas DU-145 was obtained from National Cancer Institute (NCI, Bethesda, MD, USA).
(§4) Tumour cell lines were grown at 37° C. in a humidified atmosphere with 5% CO2 in RPMI 1640 medium (Biochrom) supplemented with 10% (v/v) fetal calf serum and 50 μg/ml gentamicin. Docetaxel resistant sublines were cultured in the presence of 8 nM (22Rv1) or 10 nM docetaxel (DU-145). The cells were routinely passaged once or twice weekly and maintained in culture for up to 20 passages. For the assay, cells were harvested using TrypLE and the percentage of viable cells was determined by the CASY TT cell counter (OMNI Life Science).
(§5) The clonogenic assay was carried out in a 96 well plate format using ultra low attachment plates. For each test, cells were prepared and assay plates were prepared as follows: each test well contained a layer of semi-solid medium with tumour cells (50 μl), and a second layer of medium supernatant with or without test compound (100 μl). The cell layer consisted of 2·10^3 to 3·10^3 tumour cells per well, which were seeded in 50 μl/well cell culture medium (IMDM, supplemented with 20% (v/v) fetal calf serum, 50 μg/ml gentamicin, and 0.4% (w/v) agar). After 24 h, the soft-agar layer was covered with 90 μl of the same culture medium without agar, and 10 μl of control medium or test compound after serial dilution in DMSO and transfer in cell culture medium were added, and left on the cells for the duration of the experiment (continuous exposure, 100 μl drug overlay). Every plate included six untreated control wells and drug-treated groups. Duplicate values were obtained by testing single values per condition on one plate. […]

[2] = test system: DU-145 DOC10 prostate cancer cells; experiment: 3D clonogenic assay, docetaxel-resistant DU-145 DOC10; details: for Relative Resistance to cabazitaxel / Relative Resistance to docetaxel: compared to parental DU-145 cells without ritonavir; for IC50: Homo sapiens; for Relative Resist to docetaxel: compared to parental DU-145 cells without elacridar
Experimental: as §1, §2, §3, §4, §5

[3] = test system: 22Rv1 DOC8 prostate cancer cells; experiment: 3D clonogenic assay, docetaxel-resistant 22Rv1 DOC8; details: for IC50: Homo sapiens; for Relative Resist to docetaxel: compared to parental 22Rv1 cells without elacridar
Experimental: as §1, §2, §3, §4, §5

[4] = test system: 22Rv1 prostate cancer cells; experiment: 3D clonogenic assay, parental 22Rv1; details: for IC50: Homo sapiens
Experimental: as §1
as §2, with “Finally, 10 μl taken from the intermediate dilution plate were transferred to 140 μl of cells and medium per well of the final assay plate. Thus, the DMSO dilutions used for the mono- and the combination-treatment were diluted 1:330, and the DMSO concentration in the assay was 0.3% v/v.” left out
Tumour cell lines were grown at 37° C. in a humidified atmosphere with 5% CO2 in RPMI 1640 medium (Biochrom) supplemented with 10% (v/v) fetal calf serum and 50 μg/ml gentamicin. […] For the assay, cells were harvested using TrypLE and the percentage of viable cells was determined by the CASY TT cell counter (OMNI Life Science). […]

[5] = test system: DU-145 DOC10 prostate cancer cells; experiment: 2D culture docetaxel resistance, DU-145 DOC10 vs DU-145; details: 2D setup, DU-145 cells exposed to docetaxel for 3 months
[6] = test system: 22Rv1 DOC8 prostate cancer cells; experiment: 2D culture docetaxel resistance, 22Rv1 DOC8 vs 22Rv1; details: 2D setup, 22Rv1 cells exposed to docetaxel for 3 months

CC(C)c1nc(CN(C)C(=O)N[C@H](C(=O)N[C@@H](Cc2ccccc2)C[C@H](O)[C@H](Cc2ccccc2)NC(=O)OCc2cncs2)C(C)C)cs1 [ritonavir]
ritonavir concentration that inhibits growth ([1]; DU145, ritonavir alone): ≥ 10 µM
reversal of cabazitaxel resistance ([2]; DU145 DOC10, by ritonavir): reverses cabazitaxel resistance
ritonavir concentration that inhibits growth ([2]; DU145 DOC10, ritonavir alone): ≥ 10 µM
reversal of docetaxel resistance ([2]; DU-145 DOC10, by ritonavir): reverses docetaxel resistance
tumour colony formation ([3]; 100 μM ritonavir, cell line not given): inhibited tumour colony formation completely
reversal of cabazitaxel resistance ([3]; 22Rv1 DOC8, by ritonavir): completely reverted; also recorded: reverses cabazitaxel resistance
reversal of docetaxel resistance ([3]; 22Rv1 DOC8, by ritonavir): reverses docetaxel resistance

CO[C@H]1C(=O)[C@]2(C)[C@@H](OC)C[C@H]3OC[C@@]3(OC(C)=O)[C@H]2[C@H](OC(=O)c2ccccc2)[C@]2(O)C[C@H](OC(=O)[C@H](O)[C@@H](NC(=O)OC(C)(C)C)c3ccccc3)C(C)=C1C2(C)C [cabazitaxel]
tumour cell growth inhibition, monotherapy ([1]; DU-145): inhibited tumour cell growth in a concentration dependent manner
IC50 ([1]; DU-145, DU145, 10 μM ritonavir, read-out: IC50 value of cabazitaxel): 0.3 nM
IC50 ([1]; DU-145, DU145, without ritonavir, read-out: IC50 value of cabazitaxel): 0.6 nM
Relative Resistance to cabazitaxel ([2]; DU145 DOC10, 10 μM ritonavir): 1
Relative Resistance to cabazitaxel ([2]; DU145 DOC10 without ritonavir): 2.5
tumour cell growth inhibition, monotherapy ([2]; DU-145 DOC10): inhibited tumour cell growth in a concentration dependent manner
IC50 ([2]; DU-145, DU145 DOC10, 10 μM ritonavir, read-out: IC50 value of cabazitaxel): 0.6 nM
IC50 ([2]; DU-145, DU145 DOC10, without ritonavir, read-out: IC50 value of cabazitaxel): 1.5 nM
shift of the IC50 value of cabazitaxel, monotherapy ([2]; printed: DU-145 DOC8 vs. DU-145): 2.7 fold
tumour cell growth inhibition, monotherapy ([4]; 22Rv1): inhibited tumour cell growth in a concentration dependent manner
IC50 ([4]; 22Rv1, without ritonavir, read-out: IC50 value of cabazitaxel): 0.7 nM
tumour cell growth inhibition, monotherapy ([3]; 22Rv1 DOC8): inhibited tumour cell growth in a concentration dependent manner
Relative Resistance to cabazitaxel ([3]; 22Rv1 DOC8 without ritonavir, compared to parental 22Rv1 cells without ritonavir): 14
IC50 ([3]; 22Rv1, 22Rv1 DOC8, 10 μM ritonavir, read-out: IC50 value of cabazitaxel): 5.2 nM
IC50 ([3]; 22Rv1, 22Rv1 DOC8, 32 μM ritonavir, read-out: IC50 value of cabazitaxel): 0.7 nM
IC50 ([3]; 22Rv1, 22Rv1 DOC8, without ritonavir, read-out: IC50 value of cabazitaxel): 9.5 nM
fold higher relative IC50 value of cabazitaxel, monotherapy ([3]; printed: for 22Rv1 compared to 22Rv1): 14.5 fold

COc1cc2c(cc1OC)CN(CCc1ccc(NC(=O)c3cccc4c(=O)c5cccc(OC)c5[nH]c34)cc1)CC2 [elacridar]
reversal of docetaxel resistance ([2]; DU-145 DOC10, by elacridar): reverses docetaxel resistance
reversal of docetaxel resistance ([3]; 22Rv1 DOC8, by elacridar): reverses docetaxel resistance

CC(=O)O[C@@]12CO[C@@H]1C[C@H](O)[C@@]1(C)C(=O)[C@H](O)C3=C(C)[C@@H](OC(=O)[C@H](O)[C@@H](NC(=O)OC(C)(C)C)c4ccccc4)C[C@@](O)([C@@H](OC(=O)c4ccccc4)[C@H]21)C3(C)C [docetaxel]
IC50 ([1]; DU-145, DU-145, 0.3 μM elacridar, read-out: IC50 value of docetaxel): 1.1 nM
IC50 ([1]; DU-145, DU-145, 1 μM elacridar, read-out: IC50 value of docetaxel): 1.1 nM
IC50 ([1]; DU-145, DU-145, 1 μM ritonavir, read-out: IC50 value of docetaxel): 1.8 nM
IC50 ([1]; DU-145, DU-145, 10 μM ritonavir, read-out: IC50 value of docetaxel): 1.7 nM
IC50 ([1]; DU-145, DU-145, without elacridar (elacridar experiment), read-out: IC50 value of docetaxel): 1.1 nM
IC50 ([1]; DU-145, DU-145, without ritonavir, read-out: IC50 value of docetaxel): 2.9 nM
Relative Resist to docetaxel ([2]; DU-145 DOC10, 0.3 μM elacridar): 1.7
Relative Resist to docetaxel ([2]; DU-145 DOC10, 1 μM elacridar): 1.5
Relative Resistance to docetaxel ([2]; DU-145 DOC10, 1 μM ritonavir): 3.0
fold lower IC50 value (increase in sensitivity to docetaxel) ([2]; DU-145 DOC10, 10 μM ritonavir): 3.4 fold
Relative Resistance to docetaxel ([2]; DU-145 DOC10, 10 μM ritonavir): 1.0
fold lower IC50 value (increase in sensitivity) ([2]; DU-145 DOC10, 10 μM ritonavir, cabazitaxel experiment (FIG. 10)): 2.5 fold
Relative Resist to docetaxel ([2]; DU-145 DOC10 without elacridar): 11
Relative Resistance to docetaxel ([2]; DU-145 DOC10 without ritonavir, 3D setup): 3.3
IC50 ([2]; DU-145, DU-145 DOC10, 0.3 μM elacridar, read-out: IC50 value of docetaxel): 1.9 nM
IC50 ([2]; DU-145, DU-145 DOC10, 1 μM elacridar, read-out: IC50 value of docetaxel): 1.6 nM
IC50 ([2]; DU-145, DU-145 DOC10, 1 μM ritonavir, read-out: IC50 value of docetaxel): 8.8 nM
IC50 ([2]; DU-145, DU-145 DOC10, 10 μM ritonavir, read-out: IC50 value of docetaxel): 2.8 nM
IC50 ([2]; DU-145, DU-145 DOC10, without elacridar (elacridar experiment), read-out: IC50 value of docetaxel): 11.7 nM
IC50 ([2]; DU-145, DU-145 DOC10, without ritonavir, read-out: IC50 value of docetaxel): 9.5 nM
IC50 ([4]; 22Rv1, without elacridar, from previously performed experiment, read-out: IC50 value of docetaxel): 1.3 nM
fold decrease of relative IC50 value of docetaxel ([3]; 31.6 μM ritonavir, cell line not given): 84 fold
resistance to docetaxel, fold ([3]; 3D setup (clonogenic assay), 22Rv1 DOC8 vs parental): 42 fold
Relative Resist to docetaxel ([3]; 22Rv1 DOC8, 0.3 μM elacridar): 1.1
Relative Resist to docetaxel ([3]; 22Rv1 DOC8, 1 μM elacridar): 1
fold lower IC50 value (increase in sensitivity) ([3]; 22Rv1 DOC8, 32 μM ritonavir, cabazitaxel experiment (FIG. 12)): 14 fold
fold lower IC50 value (increase in sensitivity to docetaxel) ([3]; 22Rv1 DOC8, 0.3 and 1 μM elacridar): 100 fold
Relative Resist to docetaxel ([3]; 22Rv1 DOC8 without elacridar): 103
IC50 ([3]; 22Rv1, 31.6 μM ritonavir, cell line not given, read-out: relative IC50 value of docetaxel): 2.6 nM
IC50 ([3]; 22Rv1, 22Rv1 DOC8, 0.3 μM elacridar, read-out: IC50 value of docetaxel): 1.4 nM
IC50 ([3]; 22Rv1, 22Rv1 DOC8, 1 μM elacridar, read-out: IC50 value of docetaxel): 1.3 nM
IC50 ([3]; 22Rv1, 22Rv1 DOC8, 32 μM ritonavir, read-out: Docetaxel IC50 value): 3 nM
IC50 ([3]; 22Rv1, 22Rv1 DOC8, without elacridar (elacridar experiment), read-out: IC50 value of docetaxel): 134 nM
IC50 ([3]; 22Rv1, 22Rv1 DOC8, without ritonavir, read-out: Docetaxel IC50 value): 202 nM
IC50 ([3]; 22Rv1, without ritonavir, cell line not given, read-out: relative IC50 value of docetaxel): 219 nM
resistance to docetaxel: fold increase in IC50 value compared to parental, untreated cells [5]: ~20 fold and 21 fold and 22 fold
resistance to docetaxel: fold increase in IC50 value compared to parental, untreated cells [6]: > 100 fold and 105 fold and 134 fold

— patent US20250144083A1, “METHODS AND COMPOSITIONS FOR TREATING CANCER IN TAXANE-RESISTANT PATIENTS” (MODRA PHARMACEUTICALS B.V., priority 2022, published 2025)
